Results as given in PubChem BioAssay (NCI).
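A five-concentration, 48-hour dose response in 96-well plates underlies each endpoint, interpolated linearly between surrounding concentrations. GI50 = concentration required for 50% inhibition of growth. At the TGI there is no net growth.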

Assays:
Assay in all cases: NCI-60 cell line screen, 48 h
[1] = test system: HOP-92 NSCLC
[2] = test system: MDA-N
[3] = test system: EKVX NSCLC
[4] = test system: SW-620 colon
[5] = test system: SK-OV-3 ovarian
[6] = test system: NCI-H460 lung
[7] = test system: HS 578T breast
[8] = test system: SF-268 CNS
[9] = test system: OVCAR-4 ovarian
[10] = test system: MCF7 breast
[11] = test system: MDA-MB-231 breast
[12] = test system: SR leukemia
[13] = test system: NCI/ADR-RES ovarian
[14] = test system: DU-145 prostate
[15] = test system: CAKI-1 renal
[16] = test system: MDA-MB-435
[17] = test system: SNB-19 CNS
[18] = test system: HCT-116 colon
[19] = test system: MOLT-4 leukemia
[20] = test system: BT-549 breast
[21] = test system: UACC-257 melanoma
[22] = test system: SF-539 CNS
[23] = test system: HL-60(TB) leukemia
[24] = test system: TK-10 renal
[25] = test system: T-47D breast
[26] = test system: HT29 colon
[27] = test system: NCI-H23 lung
[28] = test system: ACHN renal
[29] = test system: HCC-2998 colon
[30] = test system: COLO 205 colon
[31] = test system: U251 CNS
[32] = test system: A549 NSCLC
[33] = test system: PC-3 prostate
[34] = test system: LOX IMVI melanoma
[35] = test system: CCRF-CEM leukemia
[36] = test system: MALME-3M melanoma
[37] = test system: SNB-75 CNS
[38] = test system: UACC-62 melanoma
[39] = test system: KM12 colon
[40] = test system: 786-0 renal
[41] = test system: IGROV1 ovarian
[42] = test system: SF-295 CNS
[43] = test system: SK-MEL-2 melanoma
[44] = test system: HOP-62 NSCLC
[45] = test system: OVCAR-8 ovarian
[46] = test system: NCI-H226 lung
[47] = test system: NCI-H522 lung
[48] = test system: RPMI-8226 leukemia
[49] = test system: HCT-15 colon
[50] = test system: OVCAR-3 ovarian
[51] = test system: SK-MEL-5 melanoma
[52] = test system: M14 melanoma
[53] = test system: OVCAR-5 ovarian
[54] = test system: K-562 leukemia
[55] = test system: SN12C renal
[56] = test system: UO-31 renal
[57] = test system: SK-MEL-28 melanoma
[58] = test system: RXF 393 renal
[59] = test system: A498 renal

## CN(C)c1ccccc1[CH2][Ga]([Cl])[CH2]c1ccccc1N(C)C
[1]
  GI50: 416 nM
  TGI: 1580 nM
[2]
  GI50: 1660 nM
  TGI: 3080 nM
[3]
  GI50: 794 nM
  TGI: 2240 nM
[4]
  GI50: 1760 nM
  TGI: 3920 nM
[5]
  GI50: 1710 nM
  TGI: 3800 nM
[6]
  GI50: 1760 nM
  TGI: 3580 nM
[7]
  GI50: 1280 nM
  TGI: 5790 nM
[8]
  GI50: 1770 nM
  TGI: 3300 nM
[9]
  GI50: 1240 nM
  TGI: 3070 nM
[10]
  GI50: 954 nM
  TGI: 2670 nM
[11]
  GI50: 1310 nM
  TGI: 2710 nM
[12]
  GI50: 1230 nM
  TGI: 4690 nM
[13]
  GI50: 1870 nM
  TGI: 4220 nM
[14]
  GI50: 1610 nM
  TGI: 3200 nM
[15]
  GI50: 1580 nM
  TGI: 3940 nM
[16]
  GI50: 1610 nM
  TGI: 3120 nM
[17]
  GI50: 1440 nM
  TGI: 2860 nM
[18]
  GI50: 833 nM
  TGI: 2170 nM
[19]
  GI50: 927 nM
  TGI: 5370 nM
[20]
  GI50: 1830 nM
  TGI: 3290 nM
[21]
  GI50: 1510 nM
  TGI: 3050 nM
[22]
  GI50: 1700 nM
  TGI: 3500 nM
[23]
  GI50: 2700 nM
  TGI: 5360 nM
[24]
  GI50: 2160 nM
  TGI: 4700 nM
[25]
  GI50: 1390 nM
  TGI: 3780 nM
[26]
  GI50: 583 nM
  TGI: 2820 nM
[27]
  GI50: 595 nM
  TGI: 2060 nM
[28]
  GI50: 1430 nM
  TGI: 3120 nM
[29]
  GI50: 1230 nM
  TGI: 2880 nM
[30]
  GI50: 1040 nM
  TGI: 2360 nM
[31]
  GI50: 1160 nM
  TGI: 2410 nM
[32]
  GI50: 1440 nM
  TGI: 2940 nM
[33]
  GI50: 1740 nM
  TGI: 3630 nM
[34]
  GI50: 1130 nM
  TGI: 3180 nM
[35]
  GI50: 399 nM
  TGI: 4820 nM
[36]
  GI50: 1750 nM
  TGI: 3320 nM
[37]
  GI50: 1410 nM
  TGI: 2740 nM
[38]
  GI50: 717 nM
  TGI: 2080 nM
[39]
  GI50: 635 nM
  TGI: 2240 nM
[40]
  GI50: 1380 nM
  TGI: 2800 nM
[41]
  GI50: 1290 nM
  TGI: 2730 nM
[42]
  GI50: 964 nM
  TGI: 2480 nM
[43]
  GI50: 1130 nM
  TGI: 2870 nM
[44]
  GI50: 1210 nM
  TGI: 2570 nM
[45]
  GI50: 1470 nM
  TGI: 3230 nM
[46]
  GI50: 537 nM
  TGI: 1950 nM
[47]
  GI50: 1410 nM
  TGI: 3450 nM
[48]
  GI50: 651 nM
  TGI: 3630 nM
[49]
  GI50: 698 nM
  TGI: 2330 nM
[50]
  GI50: 1400 nM
  TGI: 3650 nM
[51]
  GI50: 1220 nM
  TGI: 2490 nM
[52]
  GI50: 1300 nM
  TGI: 2850 nM
[53]
  GI50: 1350 nM
  TGI: 2730 nM
[54]
  GI50: 1460 nM
  TGI: 4460 nM
[55]
  GI50: 1310 nM
  TGI: 2580 nM

## O=c1cccc2n1CC1CNC[C@H]2C1
[1]
  TGI: > 100000 nM
[2]
  TGI: > 100000 nM
[3]
  TGI: > 100000 nM
[4]
  TGI: > 100000 nM
[5]
  TGI: > 100000 nM
[6]
  TGI: > 100000 nM
[7]
  TGI: > 100000 nM
[8]
  TGI: > 100000 nM
[9]
  TGI: > 100000 nM
[10]
  TGI: > 100000 nM
[11]
  TGI: > 100000 nM
[56]
  TGI: > 100000 nM
[13]
  TGI: > 100000 nM
[14]
  TGI: > 100000 nM
[15]
  TGI: > 100000 nM
[16]
  TGI: > 100000 nM
[17]
  TGI: > 100000 nM
[18]
  TGI: > 100000 nM
[19]
  TGI: > 100000 nM
[20]
  TGI: > 100000 nM
[21]
  TGI: > 100000 nM
[57]
  TGI: > 100000 nM
[24]
  TGI: > 100000 nM
[25]
  TGI: > 100000 nM
[26]
  TGI: > 100000 nM
[27]
  TGI: > 100000 nM
[28]
  TGI: > 100000 nM
[29]
  TGI: > 100000 nM
[30]
  TGI: > 100000 nM
[31]
  TGI: > 100000 nM
[32]
  TGI: > 100000 nM
[33]
  TGI: > 100000 nM
[34]
  TGI: > 100000 nM
[35]
  TGI: > 100000 nM
[36]
  TGI: > 100000 nM
[37]
  TGI: > 100000 nM
[38]
  TGI: > 100000 nM
[39]
  TGI: > 100000 nM
[40]
  TGI: > 100000 nM
[41]
  TGI: > 100000 nM
[42]
  TGI: > 100000 nM
[43]
  TGI: > 100000 nM
[44]
  TGI: > 100000 nM
[45]
  TGI: > 100000 nM
[47]
  TGI: > 100000 nM
[58]
  TGI: > 100000 nM
[49]
  TGI: > 100000 nM
[50]
  TGI: > 100000 nM
[51]
  TGI: > 100000 nM
[52]
  TGI: > 100000 nM
[53]
  TGI: > 100000 nM
[54]
  TGI: > 100000 nM
[55]
  TGI: > 100000 nM

## Cc1cc(C)nc(NS(=O)(=O)c2ccc(NC(=O)NC(F)(F)F)cc2)n1
[2]
  TGI: > 100000 nM
[3]
  TGI: > 100000 nM
[4]
  TGI: > 100000 nM
[5]
  TGI: > 100000 nM
[7]
  TGI: > 100000 nM
[8]
  TGI: > 100000 nM
[12]
  TGI: > 100000 nM
[56]
  TGI: > 100000 nM
[13]
  TGI: > 100000 nM
[15]
  TGI: 72800 nM
[16]
  TGI: > 100000 nM
[17]
  TGI: > 100000 nM
[18]
  TGI: > 100000 nM
[19]
  TGI: > 100000 nM
[20]
  TGI: > 100000 nM
[21]
  TGI: > 100000 nM
[59]
  TGI: > 100000 nM
[57]
  TGI: > 100000 nM
[22]
  TGI: > 100000 nM
[23]
  TGI: > 100000 nM
[24]
  TGI: > 100000 nM
[25]
  TGI: > 100000 nM
[26]
  TGI: > 100000 nM
[27]
  TGI: > 100000 nM
[28]
  TGI: > 100000 nM
[29]
  TGI: > 100000 nM
[30]
  TGI: > 100000 nM
[31]
  TGI: > 100000 nM
[32]
  TGI: > 100000 nM
[33]
  TGI: > 100000 nM
[34]
  TGI: > 100000 nM
[35]
  TGI: > 100000 nM
[37]
  TGI: > 100000 nM
[40]
  TGI: > 100000 nM
[41]
  TGI: > 100000 nM
[43]
  TGI: > 100000 nM
[45]
  TGI: > 100000 nM
[48]
  TGI: > 100000 nM
[58]
  TGI: > 100000 nM
[49]
  TGI: > 100000 nM
[51]
  TGI: > 100000 nM
[52]
  TGI: > 100000 nM
[53]
  TGI: > 100000 nM
[54]
  TGI: > 100000 nM
[55]
  TGI: > 100000 nM
